Test results as given in publication PMC12703428, “Development of Granzyme A Turn‐ON Fluorescent Activity‐Based Probes” (Chembiochem, 2025).
Entries after “also recorded” stand apart in the source; their conditions may differ. Square brackets hold non-standard residues; d marks the D form. Ends that are not written are not given here. Oic = O=C(O)[C@@H]1C[C@@H]2CCCC[C@@H]2N1; Tic = O=C(O)[C@@H]1Cc2ccccc2CN1

Columns and labels:
[1] = test system: lysates of MDA‐MB‐231, HEK293T, Jurkat, and HeLa cells; assay: Labeling in lysates of GzmA nonexpressing cells; type: biochemical; settings: HeLa lysates 1 mg/mL, 1 h, 37 °C
Method: Figure 4 Characterization of qABPs in native proteomes. A) Labeling of GzmA by 5 and 6 in lysates of various cell lines (1 h, 37 °C). B) Stability of 5 and 6 in buffer and cell media (11 h, 37 °C). The hydrolysis of probes was measured by monitoring the production of Cy5 fluorescence signal over time. […] C) Labeling of GzmA by probes 3 –6 in NK‐92 cells (2 h, 37 °C). D) Flow cytometry analysis of protein labeling in NK‐92 cells by 3 –5. […] E) Flow cytometry analysis of concentration‐dependent GzmA labeling in NK‐92 cells and S/N of 5 (5 μM, 2 h, 37 °C). […]
Briefly, hGzmA (50 nM) was incubated with either inhibitor 1 or 2 (200 nM), and GzmA fluorogenic substrate […] (100 µM) in 50 mM Tris, 150 mM NaCl, 0.01% Triton X-100 (pH 8) for 15 hr at 37 °C. Recorded fluorescence at Ex/Em: 380/460 nm for residual GzmA […]
Cat. No. CRL-2570) and 4T1 (ATCC Cat. No. CRL-2539) cells were cultured in RPMI supplemented with 10% fetal bovine serum (FBS), 1% penicillin/streptomycin (PS), and 2 mM L-glutamine, while HEK293T and MDA-MB-231 cells (ATCC Cat. No. HTB-26) were cultured in DMEM supplemented likewise as described above. […] The supernatant was collected, and protein concentration was measured using a Pierce BCA protein assay. […]
C. In-gel fluorescence imaging […]

[2] = target: T1, GzmA in intact NK‐92 cells (Homo sapiens, UniProt P12544); assay: Labeling of GzmA in intact NK-92 cells (in-gel fluorescence); type: cell-based; settings: 2 h, 37 °C; for Labeling of GzmA in intact NK-92 cells: 1x10^6 NK-92 cells, lysis then in-gel fluorescence and GzmA western blot; for Cell permeability / cellular uptake: intact NK-92 cells, judged from labeling in intact cells
T1 construct: host or cells: NK-92
T1 sequence (P12544 29-262): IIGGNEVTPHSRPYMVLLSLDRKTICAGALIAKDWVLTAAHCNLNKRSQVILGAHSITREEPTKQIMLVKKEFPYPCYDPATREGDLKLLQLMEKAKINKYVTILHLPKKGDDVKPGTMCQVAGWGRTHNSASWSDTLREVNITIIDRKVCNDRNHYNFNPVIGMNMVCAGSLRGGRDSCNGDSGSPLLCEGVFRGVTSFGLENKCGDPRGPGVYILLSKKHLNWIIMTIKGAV
Method: Figure 4 Characterization of qABPs in native proteomes. A) Labeling of GzmA by 5 and 6 in lysates of various cell lines (1 h, 37 °C). B) Stability of 5 and 6 in buffer and cell media (11 h, 37 °C). The hydrolysis of probes was measured by monitoring the production of Cy5 fluorescence signal over time. […] C) Labeling of GzmA by probes 3 –6 in NK‐92 cells (2 h, 37 °C). D) Flow cytometry analysis of protein labeling in NK‐92 cells by 3 –5. […] E) Flow cytometry analysis of concentration‐dependent GzmA labeling in NK‐92 cells and S/N of 5 (5 μM, 2 h, 37 °C). […] F) Flow cytometry analysis of protein labeling by 5 in MDA‐MB‐231 cells co‐cultured with NK‐92 cells (see Supporting Information for conditions). […] TEXT PRINTED IN THE PICTURE: (E) qABP 5: S/N = 4 […]
Final reaction volume was 20 µL. […]
Conditions for Figure 4C: Various concentrations of probes 3-6 were incubated with 1x10^6 NK-92 cells for 2 h at 37 °C in a humidified incubator. Cells were centrifuged, washed with PBS (x2) and lysed with ~40 µL of ice-cold RIPA buffer. Lysates were collected, protein concentration was measured with PIERCE BCA protein assay and samples were analyzed with in-gel fluorescence and GzmA western blotting.
D. Flow cytometry analysis […]
Conditions for Figure 4F: In a 6-well cell culture plate, 5x10^5 MDA-MB-231 cells were seeded and allowed to attach overnight. After confirming cell attachment under the microscope, media were removed and fresh media containing 2x10^6 NK-92 cells (or NK-92 culture media alone for control) were added along with simultaneous addition of qABP 5 (5 µM). Cells were co-cultured for the indicated times at 37 °C under 5% CO2 in a humidified atmosphere. […]
E. Synthesis of compounds
1H, 13C and 31P spectra were acquired on a 500 MHz NMR in CDCl3 or CD3OD at 25 °C. The 1H chemical shifts are given in parts per million (δ) with respect to an internal tetramethylsilane (TMS, δ 0.00 ppm) standard. NMR data are reported in the following format: chemical shifts (multiplicity (s = singlet, d = doublet, t = triplet, m = multiplet), coupling constants [Hz], integration). LCMS data were acquired on Agilent 1200 series LC/MS or Shimadzu Prominence-i LC-2030s instrument, whereas HRMS data were obtained on an Agilent Q-TOF LC/MS/MS instrument. All compounds are >95% pure by HPLC analysis.

Substance | Cross-reactivity in lysates of GzmA nonexpressing cells [1] | Labeling of GzmA in intact NK-92 cells [2] | Cell permeability / cellular uptake [2]
IGNR [compound 5] | no detectable cross‐reactivity | effectively labeled active GzmA in intact cells | excellent cellular uptake
[Tic]G[Oic]R [compound 6] | no detectable cross‐reactivity | poor labeling | limited cell permeability; also recorded: cell impermeable
